Tested on: experimental autoimmune encephalomyelitis (EAE) mice
Experiment: EAE model of MS, disease score, treatment from day of disease onset (score >1)
Assay type: in vivo, C57BL/6 mice
Description: Experimental detail: EAE was induced in female C57BL/6 mice as described in Example 1. On the day of disease onset (score >1, dotted line), mice were started on daily treatment with vehicle only (Veh) or nalmefene (NaIM) at 0.1, 0.03, 0.01, or 0.003 mg/kg by i.p. injection. […]
(§1) Experimental detail: EAE was induced in female C57BL/6 mice as described in Example 1. On the day of disease onset (score >1, dotted line), mice were treated with vehicle only (daily), nalmefene (0.01 mg/kg by i.p. injection daily), the KOR antagonist norBNI (10 mg/kg by i.p. injection weekly), both nalmefene and norBNI, or the MOR antagonist BFNA (10 mg/kg by i.p. injection weekly).
as §1, with “weekly). The peak disease score during the first EAE episode was recorded, and mice were considered recovered if they received a score <0.5 by day 23 post treatment initiation.” for “weekly).”
Experimental detail: EAE was induced in female C57BL/6 mice as described in Example 1.

[1] = 0.01 mg/kg i.p. daily from disease onset
[2] = 0.003-0.1 mg/kg i.p. daily from disease onset

Question: What does the source list for `C=C1CC[C@@]2(O)[C@H]3Cc4ccc(O)c5c4[C@@]2(CCN3CC2CC2)[C@H]1O5` [nalmefene, (4R,4aS,7aS,12bS)-3-(cyclopropylmethyl)-7-methylidene-2,4,5,6,7a,13-hexahydro-1H-4,12-methanobenzofuro[3,2-e]isoquinoline-4a,9-diol]?
Answer: disease score (recovery from paralysis) [1]: recovery from paralysis, which is complete; peak disease score during first EAE episode [1]: modest but significant effect; percentage of mice recovered (score <0.5 by day 23 post treatment initiation) [1]: all of the mice recover; number of days in recovery [2]: enables a sustained functional recovery; percentage of mice recovered (score <0.5 by day 23 post treatment initiation) [2]: enables full functional recovery; dose showing the most rapid recovery (i.p. daily from disease onset, replicated in 6 independent experiments): 0.01 mg/kg; disease score (nalmefene 0.01 mg/kg i.p. daily in the presence of norBNI 10 mg/kg i.p. weekly): effective at reducing disease independently of the KOR; number of days in recovery (sustained recovery) (nalmefene 0.01 mg/kg i.p. daily, clemastine fumerate 10 mg/kg i.p.): sustained recovery; disease score (functional recovery), comparison nalmefene vs clemastine (nalmefene 0.01 mg/kg i.p. daily, clemastine fumerate 10 mg/kg i.p., from disease onset): almost complete recovery from paralysis
